Source: US11866720B2, “Transgenic or non-transgenic plants with mutated protoporphyrinogen oxidase having increased tolerance to herbicides” (priority 2013, dated 2024)
Values joined by “and” are separate entries in the source; they are usually repeats but may differ in a detail not shown here. Identical values can stand only once.

Tested on: transgenic Arabidopsis thaliana plants expressing wildtype or mutated PPO
Assay: Greenhouse tolerance test of transgenic T1 Arabidopsis plants (phytotox / injury rating 0-100)
Format: in vivo
Details: for Plant growth injury, scale 0-100, 100 is 100% damage: +1% MSO
[1] = non-transgenic Arabidopsis, POST, 7 DAT, 75 g ai/ha
[2] = non-transgenic Arabidopsis, POST, 7 DAT, 150 g ai/ha
[3] = non-transgenic Arabidopsis, POST, 7 DAT, 300 g ai/ha
[4] = Ø F420V 1, POST, 7 DAT, 75 g ai/ha
[5] = Ø F420V 1, POST, 7 DAT, 150 g ai/ha
[6] = Ø F420V 1, POST, 7 DAT, 300 g ai/ha
[7] = Ø F420V 2, POST, 7 DAT, 75 g ai/ha
[8] = Ø F420V 2, POST, 7 DAT, 150 g ai/ha
[9] = Ø F420V 2, POST, 7 DAT, 300 g ai/ha
[10] = Ø F420V 3, POST, 7 DAT, 75 g ai/ha
[11] = Ø F420V 3, POST, 7 DAT, 150 g ai/ha
[12] = Ø F420V 3, POST, 7 DAT, 300 g ai/ha
[13] = Ø R128A, F420V 1, POST, 7 DAT, 75 g ai/ha
[14] = Ø R128A, F420V 1, POST, 7 DAT, 150 g ai/ha
[15] = Ø R128A, F420V 1, POST, 7 DAT, 300 g ai/ha
[16] = Ø R128A, F420V 1 to 3, 75 g ai/ha
[17] = Ø R128A, F420V 1 to 3, 150 g ai/ha
[18] = Ø R128A, F420V 1 to 3, 300 g ai/ha
[19] = Ø R128A, F420V 2, POST, 7 DAT, 75 g ai/ha
[20] = Ø R128A, F420V 2, POST, 7 DAT, 150 g ai/ha
[21] = Ø R128A, F420V 2, POST, 7 DAT, 300 g ai/ha
[22] = Ø R128A, F420V 3, POST, 7 DAT, 75 g ai/ha
[23] = Ø R128A, F420V 3, POST, 7 DAT, 150 g ai/ha
[24] = Ø R128A, F420V 3, POST, 7 DAT, 300 g ai/ha
[25] = Ø non-transgenic Arabidopsis, POST, 7 DAT, 75 g ai/ha
[26] = Ø non-transgenic Arabidopsis, POST, 7 DAT, 150 g ai/ha
[27] = Ø non-transgenic Arabidopsis, POST, 7 DAT, 300 g ai/ha

Structure (SMILES)	Plant growth injury, scale 0-100, 100 is 100% damage [1]	Plant growth injury, scale 0-100, 100 is 100% damage [2]	Plant growth injury, scale 0-100, 100 is 100% damage [3]	Plant growth injury, scale 0-100, 100 is 100% damage [4]	Plant growth injury, scale 0-100, 100 is 100% damage [5]	Plant growth injury, scale 0-100, 100 is 100% damage [6]	Plant growth injury, scale 0-100, 100 is 100% damage (Ø F420V 1 to 3, 75 g ai/ha)	Plant growth injury, scale 0-100, 100 is 100% damage (Ø F420V 1 to 3, 150 g ai/ha)	Plant growth injury, scale 0-100, 100 is 100% damage (Ø F420V 1 to 3, 300 g ai/ha)	Plant growth injury, scale 0-100, 100 is 100% damage [7]	Plant growth injury, scale 0-100, 100 is 100% damage [8]	Plant growth injury, scale 0-100, 100 is 100% damage [9]	Plant growth injury, scale 0-100, 100 is 100% damage [10]	Plant growth injury, scale 0-100, 100 is 100% damage [11]	Plant growth injury, scale 0-100, 100 is 100% damage [12]	Plant growth injury, scale 0-100, 100 is 100% damage [13]	Plant growth injury, scale 0-100, 100 is 100% damage [14]	Plant growth injury, scale 0-100, 100 is 100% damage [15]	Plant growth injury, scale 0-100, 100 is 100% damage [16]	Plant growth injury, scale 0-100, 100 is 100% damage [17]	other results
CC(C)N(C)S(=O)(=O)NC(=O)c1cc(-n2c(=O)cc(C(F)(F)F)n(C)c2=O)c(F)cc1Cl [Saflufenacil, saflufenacil]	98%	98%	98%	39%	60%	77%	42%	60%	76%	36%	55%	72%	51%	66%	78%	16%	18%	22%	18%	20%	Plant growth injury, scale 0-100, 100 is 100% damage [18]: 21%; Plant growth injury, scale 0-100, 100 is 100% damage [19]: 22%; Plant growth injury, scale 0-100, 100 is 100% damage [20]: 24%; Plant growth injury, scale 0-100, 100 is 100% damage [21]: 22%; Plant growth injury, scale 0-100, 100 is 100% damage [22]: 18%; Plant growth injury, scale 0-100, 100 is 100% damage [23]: 18%; Plant growth injury, scale 0-100, 100 is 100% damage [24]: 19%; Plant growth injury, scale 0-100, 100 is 100% damage [25]: 98%; Plant growth injury, scale 0-100, 100 is 100% damage [26]: 98%; Plant growth injury, scale 0-100, 100 is 100% damage [27]: 98%
C#CCN1C(=O)C(F)(F)Oc2cc(F)c(-n3c(=O)n(C)c(=S)n(C)c3=O)cc21	98%	98%	98%	17%	28%	36%	11%	17%	26%	9%	11%	22%	8%	12%	22%	18%	23%	26%	18%	24%	Injury Rating 0-100% (0 = no injury, 100 = total control) (Line 2, F420V, SEQ_ID 2 & 4, 19 DAT, 150 g/Ha + 1% MSO): 90% and 85% and 45%; Plant growth injury, scale 0-100, 100 is 100% damage [18]: 32%; Plant growth injury, scale 0-100, 100 is 100% damage [19]: 24%; Plant growth injury, scale 0-100, 100 is 100% damage [20]: 20%; Plant growth injury, scale 0-100, 100 is 100% damage [21]: 33%; Plant growth injury, scale 0-100, 100 is 100% damage [22]: 11%; Plant growth injury, scale 0-100, 100 is 100% damage [23]: 30%; Plant growth injury, scale 0-100, 100 is 100% damage [24]: 36%; Plant growth injury, scale 0-100, 100 is 100% damage [25]: 98%; Plant growth injury, scale 0-100, 100 is 100% damage [26]: 98%; Plant growth injury, scale 0-100, 100 is 100% damage [27]: 98%
